Each structure is given as a SMILES string. pIC50: −log10 of the molar value.

This assay concerns T. brucei brucei. Kind of assay: T. brucei brucei growth inhibition assay (bloodstream forms, CellTiter-Glo ATP-bioluminescence). The assay is classed as cell-based. To be noted: Trypanosoma brucei; bloodstream forms of T. brucei brucei clone 427-221a; 40 hours at 37° C.; final DMSO 0.5%; 95% confidence intervals in parentheses. As for the experimental part: The growth inhibition assay for T. brucei brucei was conducted as described previously by Z. B. Mackey et al (Kenny K. H. Ang, Joseline Ratnam, Jiri Gut, Jennifer Legac, Elizabeth Hansell, Zachary B. Mackey, Katarzyna M. Skrzypczynska, Anjan Debnath, Juan C. Engel, Philip J. Rosenthal, James H. McKerrow, Michelle R. Arkin, Adam R. Renslo (2011) “Mining a Cathepsin Inhibitor Library for New Antiparasitic Drug Leads”, PLoS Neglected Tropical Diseases, 5(5):e1023). Bloodstream forms of the monomorphic T. brucei brucei clone 427-221a were grown in complete HMI-9 medium containing 10% FBS, 10% Serum Plus medium (Sigma Inc., St. Louis, Mo., USA), 50 U/mL penicillin and […] (Invitrogen) at 37° C. under a humidified atmosphere and 5% CO2. Inhibitor stocks were prepared in 100% DMSO and screened at […] for percent inhibition values or serially diluted from […] in 10% DMSO for IC50 determinations. […] of diluted parasites ([…]) in sterile Greiner 96-well flat white opaque culture plates such that the final DMSO concentration was 0.5%. The 0% inhibition control wells contained 0.5% DMSO while 100% inhibition control wells contained […] thimerosal (Sigma). After compound addition, plates were incubated for 40 hours at 37° C. At the end of the incubation period, […] of CellTiter-Glo™ reagent (Promega Inc., Madison, Wis., USA) was added to each well and plates were placed on an orbital shaker at room temperature for 2 min to induce lysis. After an additional 10 min of incubation without shaking to stabilize the signal, the ATP-bioluminescence of each well was determined using an Analyst HT plate reader (Molecular Devices, Sunnyvale, Calif., USA). Raw values were converted to log 10 and percentage inhibition calculated relative to the controls. IC50 curve fittings were performed with Prism 4 software as above. Pentamidine was used as a comparator in the assay.
On to `CN(C)CCCC1(c2ccc(F)cc2)OCc2cc(C(=N)N)ccc21` (centres unmarked) [Example 1, 1-[3-(dimethylamino)propyl]-1-(4-fluorophenyl)-1,3-dihydro-2-benzofuran-5-carboximidamide], for which the negative logarithm of the IC50 (pIC50) is 4.49. For the compound `CN(C)CCCC1(c2ccc(F)cc2)OCc2cc(C(=N)NCc3ccccc3)ccc21` (centres unmarked) [Example 4, N-benzyl-1-[3-(dimethylamino)propyl]-1-(4-fluorophenyl)-1,3-dihydro-2-benzofuran-5-carboximidamide], the pIC50 was 5.06. Turning to `CN(C)CCCC1(c2ccc(F)cc2)OCc2cc(C(=N)N3CCOCC3)ccc21` (centres unmarked) [Example 5, 1-[1-[3-(dimethylamino)propyl]-1-(4-fluorophenyl)-1,3-dihydro-2-benzofuran-5-yl]-1-(morpholin-4-yl)methan-imine], the negative logarithm of the IC50 (pIC50) is 4.43. `CN(C)CCCC1(c2ccc(F)cc2)OCc2cc(C(=N)N3CCCC3)ccc21` (centres unmarked) [Example 6, 1-[1-[3-(dimethylamino)propyl]-1-(4-fluorophenyl)-1,3-dihydro-2-benzofuran-5-yl]-1-(pyrrolidin-1-yl)methan-imine]: the pIC50 was 4.62.

Regarding `CN(C)CCCC1(c2ccc(F)cc2)OCc2cc(-c3ncc[nH]3)ccc21` (centres unmarked) [Example 7], the pIC50 was 5.85.

These data come from patent publication US9346777B2, “Antiprotozoal compounds” (MediSynergics, LLC, priority 2012, dated 2016).
